The values below come from ChEMBL document CHEMBL3259605, “Improving the Pharmacokinetics of GPR40/FFA1 Full Agonists” (ACS Med Chem Lett, 2014).

In data set [1] the target is T1, Free fatty acid receptor 1 (Homo sapiens, UniProt O14842). In words: Agonist activity at GPR40 (unknown origin) expressed in CHO cells assessed as luminescence for 20 seconds interval by aequorin assay in presence of 0.01% human serum albumin relative to AM-1638. The format is cell-based.
Data set [2] addresses T1, Free fatty acid receptor 1. In words: Agonist activity at GPR40 (unknown origin) expressed in CHO cells assessed as luminescence for 20 seconds interval by aequorin assay in presence of 0.01% human serum albumin. Format: cell-based.
A short description of data set [3]: Clearance in rat at 0.5 mg/kg, iv. The format is ADME, organism-based. The arrangement: dose 0.5 mg/kg, route intravenous. The following applies: in vivo.
Data set [4] is described as follows: Half life in rat at 0.5 mg/kg, iv. The format is ADME, organism-based. The arrangement: dose 0.5 mg/kg, route intravenous. The following applies: in vivo.
The target of data set [5] is T1, Free fatty acid receptor 1. In words: Agonist activity at GPR40 (unknown origin) expressed in mouse A9 cells assessed as inositol phosphate accumulation using [myo-3H]inositol after 1 hr by scintillation counting in presence of 0.3% human serum albumin. The format is functional, cell-based.
Data set [6] in a line: Oral bioavailability in rat at 2 mg/kg. The following applies: in vivo. Format: ADME, organism-based.
Data set [7] deals with T1, Free fatty acid receptor 1. Put plainly: Agonist activity at GPR40 (unknown origin) expressed in mouse A9 cells assessed as inositol phosphate accumulation using [myo-3H]inositol after 1 hr by scintillation counting in presence of 0.3% human serum albumin relative to AM-1638. Format: functional, cell-based.
Data set [8] in a line: Intrinsic clearance in human liver microsomes at 1 uM after 30 mins. Format: ADME. Particulars: read-out: CLH. A general note: Microsomes from liver hold many membrane-bound enzymes, among them those of drug oxidation.
A short description of data set [9]: Intrinsic clearance in rat liver microsomes at 1 uM after 30 mins. The format is ADME. Particulars: read-out: CLH.
In data set [10] the test system is Mus musculus. Put plainly: Antidiabetic activity in high fat fed C57/Bl6 mouse streptozotocin-induced type 2 diabetic model assessed as reduction of blood glucose level at 60 mg/kg, po up to 120 mins by oral glucose tolerance test. Format: functional, organism-based. On the set-up: dose 60 mg/kg.
The subject of data set [11] is Mus musculus. Put plainly: Antidiabetic activity in diet-induced obesity BDF1 mouse model assessed as reduction of blood glucose level at 30 mg/kg, po up to 120 mins by oral glucose tolerance test. On the set-up: dose 30 mg/kg. Format: functional, organism-based.
For data set [12], the system named is Mus musculus. In words: Induction of GLP-1 release in po dosed high fat fed C57/Bl6 mouse streptozotocin-induced type 2 diabetic model. Format: functional, organism-based.
In data set [13] the test system is Mus musculus. In words: Antidiabetic activity in po dosed high fat fed C57/Bl6 mouse streptozotocin-induced type 2 diabetic model assessed as reduction of blood glucose level up to 120 mins by oral glucose tolerance test. Format: functional, organism-based.
Data set [14] deals with Mus musculus. Put plainly: Antidiabetic activity in high fat fed C57/Bl6 mouse streptozotocin-induced type 2 diabetic model assessed as reduction of blood glucose level at 30 mg/kg, po up to 120 mins by oral glucose tolerance test. On the set-up: dose 30 mg/kg. The format is functional, organism-based.
In data set [15] the test system is Mus musculus. Put plainly: Antidiabetic activity in diet-induced obesity BDF1 mouse model assessed as reduction of blood glucose level at 0.3 mg/kg, po up to 120 mins by oral glucose tolerance test. The format is functional, organism-based. On the set-up: dose 0.3 mg/kg.
In data set [16] the test system is Mus musculus. In words: Antidiabetic activity in diet-induced obesity BDF1 mouse model assessed as reduction of blood glucose level at 3 mg/kg, po up to 120 mins by oral glucose tolerance test. The format is functional, organism-based. The arrangement: dose 3 mg/kg.
The test system of data set [17] is Mus musculus. Put plainly: Antidiabetic activity in diet-induced obesity BDF1 mouse model assessed as reduction of blood glucose level at 3 to 10 mg/kg, po up to 120 mins by oral glucose tolerance test. Format: functional, organism-based.

The source made the active and inactive calls. The calls are words filed in the database; no cut-off is given here.

T1 sequence (O14842 whole entry): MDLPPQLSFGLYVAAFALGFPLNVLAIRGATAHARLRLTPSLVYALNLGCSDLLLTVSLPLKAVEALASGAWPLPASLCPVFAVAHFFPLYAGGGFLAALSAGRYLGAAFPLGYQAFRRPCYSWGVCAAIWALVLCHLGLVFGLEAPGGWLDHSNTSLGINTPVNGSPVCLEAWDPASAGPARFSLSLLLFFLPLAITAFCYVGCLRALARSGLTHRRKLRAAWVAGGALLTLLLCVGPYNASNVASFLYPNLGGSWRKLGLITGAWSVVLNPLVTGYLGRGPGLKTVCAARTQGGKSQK

By Emax is commonly meant the size of the effect at its maximum, as opposed to the concentration needed. In general, EC50 refers to the concentration at which the effect is half-maximal. In general, clearance refers to a measure of how efficiently the substance is removed, as volume per time. Low readings indicate a low capacity for elimination, high ones a high capacity for elimination. The half-life is the time in which the quantity being followed falls by half. High values mean slow loss, low ones fast loss. For the compound `COc1ccc(F)c(-c2ccc(COc3cccc([C@@H](CC(=O)O)C4CC4)c3)cc2[C@H](OC)C(C)(C)C)c1`, in [1], the Emax was determined as 105%. The EC50 in data set [2] is 147 nM. In data set [3], this compound gave a clearance of 4.67 mL/min/kg. This compound had a half-life in [4] of 3.5 h.
For `CCO[C@@H](c1cc(COc2cccc([C@@H](CC(=O)O)C3CC3)c2)ccc1-c1cc(OC)ccc1F)C(C)(C)C`, in that order: 101%, 114 nM, 5.33 mL/min/kg and 3.9 h.
For orientation: bioavailability means dose-corrected exposure relative to a reference, in per cent. A higher bioavailability goes with good availability. In the case of `COc1cc(-c2ccc(COc3cc([C@@H](CC(=O)O)C4CC4)ccn3)cc2[C@@H]2CCCC2(C)C)c(F)cn1`, the EC50 in [5] worked out at 1.7 nM; in data set [2], 108 nM. In data set [6], this compound showed a bioavailability of 37%. Besides, the Emax in [7] is 100%; in [1] it was 110%. Besides, in [3], the clearance was 1.43 mL/min/kg. The half-life in [4] was 9.7 h.
In the case of `CCC[C@H](CC(=O)O)c1cccc(OCc2ccc(-c3cccc(OC)n3)c(C(C)(C)C)c2)c1`, the Emax in data set [1] was 61%. In addition, the EC50 in [2] is 3700 nM.
For `COc1ccc(F)c(-c2ccc(COc3cccc([C@@H](CC(=O)O)C4CC4)c3)cc2[C@H](F)C(C)(C)C)c1`, in that order: 100% and 105 nM.
With `COc1cc(-c2ccc(COc3cccc([C@@H](CC(=O)O)C4CC4)c3)cc2[C@@H]2CCCC2(C)C)c(F)cn1`, the bioavailability in data set [6] turned out to be 34%. Also, the Emax in data set [1] worked out at 95%. Also, in [2], the EC50 is 68 nM. Further, the microsomal CLint at 1 µM in data set [8] was 21 µL/min/mg; in [9] it was 67 µL/min/mg. Also, the clearance in data set [3] is 1.67 mL/min/kg. Also, in data set [4], the half-life is 3.5 h.
For the compound `COc1cc(-c2ccc(COc3ccc4c(c3)[C@@](C)(CC(=O)O)CC4)cc2[C@H](OC)C(C)(C)C)c(F)cn1`, the values for the EC50 in [5] and in data set [2] were 6.7 nM and 235 nM, respectively. Further, the bioavailability in [6] was found to be 21%. Besides, the Emax in data set [7] was found to be 101%; in data set [1], 106%. Also, the clearance in [3] is 4.17 mL/min/kg. In addition, the half-life in [4] is 4 h.
As to `COc1ccc(F)c(-c2ccc(COc3cccc([C@@H](CC(=O)O)C4CC4)c3)cc2CC(C)(C)C)c1`, the Emax in data set [1] was found to be 102%. The EC50 in data set [2] was found to be 88 nM. Besides, the clearance in [3] is 20 mL/min/kg. In [4], this compound had a half-life of 1.2 h.
On to `COc1ccc(F)c(-c2ccc(COc3cccc([C@@H](CC(=O)O)C4CC4)c3)cc2C2=CCCC2(C)C)c1`, for which the outcome in the data set with Mus musculus [10] was Active.
On to `COc1cc(-c2ccc(COc3cccc([C@@H](CC(=O)O)C4CC4)c3F)cc2[C@@H]2CCCC2(C)C)c(F)cn1`, for which the result in the data set with Mus musculus [11] and in the data set on Mus musculus [14] was Active. The same compound returned a bioavailability in data set [6] of 98%. Moreover, the Activity result in the data set with Mus musculus [12] and in the data set with Mus musculus [13] was “Dose-dependent effect” each time. In addition, the maximum response (Emax) in [1] turned out to be 102%. The EC50 in data set [2] was 93 nM. Besides, the microsomal CLint at 1 µM in data set [8] was determined as 15 µL/min/mg; in data set [9] it was 52 µL/min/mg. This compound also gave a clearance in [3] of 2.83 mL/min/kg. This compound also had a half-life in data set [4] of 4.6 h.
In the case of `COc1ccc(F)c(-c2ccc(COc3cccc([C@@H](CC(=O)O)C4CC4)c3)cc2[C@@H](OC)C(C)(C)C)c1`, the Emax in [1] is 98%. Moreover, the EC50 in data set [2] is 1410 nM.
`COc1cc(-c2ccc(COc3cc4c(cn3)CC[C@]43C[C@H]3C(=O)O)cc2[C@@H]2CCCC2(C)C)c(F)cn1`: the EC50 in [5] worked out at 22 nM; in data set [2], 249 nM. This compound also had a bioavailability in data set [6] of 58%. The Emax in data set [7] came to 97%; in data set [1] it was 98%. This compound showed a clearance in data set [3] of 4.33 mL/min/kg. Further, in data set [4], the half-life was 3.6 h.
On to `COc1cc(-c2ccc(COc3cc4c(cn3)CC[C@]43C[C@H]3C(=O)O)cc2[C@H](OC)C(C)(C)C)c(F)cn1`, for which the EC50 in data set [5] worked out at 370 nM; in [2], 250 nM. Besides, the results for the Emax in [7] and in [1] were 122% and 85%, respectively. Moreover, the clearance in [3] was 28.3 mL/min/kg. The compound also had a half-life in [4] of 1.2 h.
On to `COc1ccc(F)c(-c2ccc(COc3cccc([C@@H](CC(=O)O)C4CC4)c3)cc2[C@@H]2OCCCC2(C)C)c1`, for which the Emax in data set [1] stood at 96%. Further, the EC50 in [2] came out at 227 nM.
For the compound `CCC[C@H](CC(=O)O)c1cccc(OCc2ccc(-c3cccc(OC)c3)c(C(C)(C)C)c2)c1`, the Emax in data set [1] was found to be 94%. In data set [2], the EC50 came out at 370 nM.
As for `COc1cc(-c2ccc(COc3cc([C@H](C)CC(=O)O)ccn3)cc2[C@@H]2CCCC2(C)C)c(F)cn1`, the EC50 in data set [5] stood at 19 nM; in data set [2], 281 nM. Moreover, the Emax in data set [7] turned out to be 100%; in data set [1], 136%.
`COc1cc(-c2ccc(COc3cc([C@@H](CC(=O)O)C4CC4)ccn3)cc2[C@H](OC)C(C)(C)C)c(F)cn1`: the EC50 in [5] is 0.6 nM; in [2], 162 nM. The bioavailability in data set [6] came to 54%. Further, the Emax in data set [7] came to 100%; in data set [1], 94%. For the same compound, the outcome in the data set on Mus musculus [15], in the data set on Mus musculus [16] and with Mus musculus [17] was Active. This compound also had a clearance in data set [3] of 1.02 mL/min/kg. This compound had a half-life in data set [4] of 8.1 h.
Turning to `COc1cc(-c2ccc(COc3cccc([C@@H](CC(=O)O)C4CC4)c3)cc2C2=CCCC2(C)C)c(F)cn1`, the Emax in data set [1] was determined as 100%. Besides, in [2], the EC50 amounted to 120 nM.
As to `CCC[C@H](CC(=O)O)c1cccc(OCc2ccc(-c3cncc(OC)c3)c(C(C)(C)C)c2)c1`, in data set [1], the Emax stood at 72%. The EC50 in [2] was found to be 30000 nM.
`COc1ccc(F)c(-c2ccc(COc3cccc([C@@H](CC(=O)O)C4CC4)c3)cc2[C@@H]2CCCC2(C)C)c1`: the bioavailability in data set [6] is 34%. Further, the maximal effect (Emax) in [1] is 101%. The EC50 in [2] was determined as 76 nM. Besides, the microsomal CLint at 1 µM in [8] was determined as 52 µL/min/mg; in [9] it was 219 µL/min/mg. For the same compound, in data set [3], the clearance was 11.7 mL/min/kg. This compound gave a half-life in data set [4] of 2 h.
As for `CC[C@H](CC(=O)O)c1ccnc(OCc2ccc(-c3cc(OC)ncc3F)c([C@@H]3CCCC3(C)C)c2)c1`, the EC50 in [5] is 6 nM; in data set [2] it was 150 nM. The bioavailability in [6] was 83%. Also, the values for the maximum response (Emax) in data set [7] and in data set [1] were 102% and 99%, respectively. The clearance in data set [3] is 2.5 mL/min/kg. This compound also had a half-life in [4] of 8.2 h.
Turning to `COc1cc(-c2ccc(COc3ccc4c(c3)[C@@](C)(CC(=O)O)CC4)cc2[C@@H]2CCCC2(C)C)c(F)cn1`, the EC50 in data set [5] worked out at 3.4 nM; in [2], 128 nM. The bioavailability in data set [6] was found to be 10%. Besides, the Emax in data set [7] and in [1] was 100% each time. In data set [3], the clearance was 7.5 mL/min/kg. This compound gave a half-life in [4] of 3.7 h.
